Legend:
HCT 116 = test: cells; conditions: Homo sapiens, HCT-116, 72 h, read-out: In Vitro Cellular IC50 HCT 116
Protocol: Cells were cultivated at 37° C., 5% CO2 in media containing 10% FBS and 2 mM glutamine Cells were routinely monitored with MycoAlert™ PLUS Mycoplasma Detection Kit (Lonza Walkersville, Inc.) to make sure they were mycoplasma free. Antibiotics (100 U/mL of penicillin and 100 μg/mL of streptomycin) were only added to the media used for compound dilution and cells in 96-well assay plates.
For a typical screening experiment, cells (100 μL/well) are inoculated into 96 well microtiter plates at plating densities ranging from 2,000 to 30,000 cells/well depending on the doubling time of individual cell lines and assay linearity. […] Suspension cells are treated with test compounds immediately after cell inoculation.
Test compounds are serially diluted (3-fold or 4-fold, 8-concentration) using the same media and added to the plates (15 to 25 μL/well). After 72 h of cultivation, the plates are assayed for cell cytotoxicity/viability by using the following two methods.
Cells in plates are fixed with cold trichloroacetic acid (TCA) (50% w/v in DI water, 1/4 volume of the medium in each well), and incubated at 4° C. for 1 h (adherent cells) or 2 h (suspension cells). The plates are washed 5 times (tap water×3, DI water×2) and air-dried. SRB solution 0.4% (w/v) in 1% acetic acid is added to each well (60 μL/well) and the plates are incubated at room temperature for 30 min, then washed with 1% acetic acid solution 4 times, and air-dried.
The plates are added CellTiter-Glo® Reagent (95 μL/well) and read the luminescence on a BioTek H4 reader per manufacture's protocol.
The raw data are processed using BioTek's Software Gen5 (v2.03.01) to generate inhibitory IC50 values.

MV-4-11 = test: cells; conditions: Homo sapiens, MV4-11, 72 h, read-out: In Vitro Cellular IC50 MV-4-11
[1] = target: HDAC (HeLa nuclear extracts); test: HDAC enzyme assay, HeLa nuclear extracts; conditions: read-out: In Vitro Enzymatic IC50 HDAC (HeLa)
MCF7 = test: Anti-proliferative assay (cellular IC50), MCF7; conditions: Homo sapiens, MCF7, 72 h, read-out: In Vitro Cellular IC50 MCF7
HepG2 = test: Anti-proliferative assay (cellular IC50), HepG2; conditions: Homo sapiens, HepG2, 72 h, read-out: In Vitro Cellular IC50 HepG2
MOLT-4 = test: Anti-proliferative assay (cellular IC50), MOLT-4; conditions: Homo sapiens, MOLT-4, 72 h, read-out: In Vitro Cellular IC50 MOLT-4
PC-3 = test: Anti-proliferative assay (cellular IC50), PC-3; conditions: Homo sapiens, PC-3, 72 h, read-out: In Vitro Cellular IC50 PC-3
[2] = Microsomal stability, human liver microsomes; conditions: human, microsomes, 0.75 h, 5 μM, pH 7.4
Protocol: (§1) GIBIO pooled human liver microsomes (HLM) (Cat # HMMCPL), mouse liver microsomes (MLM) (Cat # BCMCPL), and rat liver microsomes (RLM) (Cat # RTMCPL) were purchased from Life Technologies. […] Samples are incubated for 30, 45, or 60 min. Reaction is terminated with ice-cold acetonitrile 0.3% formic acid. Samples are subsequently centrifuged at 4° C. for 15 min at 20,000×g. The supernatant is analysed by LC-MS.
(§2) Compound in vitro metabolic stability was assayed using liver microsomes (LM) at 0.5 mg/mL of proteins, incubated for 30 min (mouse, MLM), 45 min (rat, RLM), 30 or 45 min (human, HLM). % of remaining parent compound was measured using LC-MS.

[3] = Microsomal stability, rat liver microsomes; conditions: rat, microsomes, 0.75 h, 5 μM, pH 7.4
Protocol: as §1, §2

COLO 205 = test: cells; conditions: Homo sapiens, COLO 205, 72 h, read-out: In Vitro Cellular IC50 COLO 205
PI3Kα = target: T1, PI3Kα (Homo sapiens, UniProt P42336); test: Kinase enzyme assay (ADP-Glo), PI3Kα; assay type: biochemical; conditions: read-out: In Vitro Enzymatic IC50 PI3Kα
T1 construct: purchased Invitrogen, or BPS Bioscience Inc., or SignalChem PV4788 / 40620 / P27-18H
T1 sequence (P42336 whole entry): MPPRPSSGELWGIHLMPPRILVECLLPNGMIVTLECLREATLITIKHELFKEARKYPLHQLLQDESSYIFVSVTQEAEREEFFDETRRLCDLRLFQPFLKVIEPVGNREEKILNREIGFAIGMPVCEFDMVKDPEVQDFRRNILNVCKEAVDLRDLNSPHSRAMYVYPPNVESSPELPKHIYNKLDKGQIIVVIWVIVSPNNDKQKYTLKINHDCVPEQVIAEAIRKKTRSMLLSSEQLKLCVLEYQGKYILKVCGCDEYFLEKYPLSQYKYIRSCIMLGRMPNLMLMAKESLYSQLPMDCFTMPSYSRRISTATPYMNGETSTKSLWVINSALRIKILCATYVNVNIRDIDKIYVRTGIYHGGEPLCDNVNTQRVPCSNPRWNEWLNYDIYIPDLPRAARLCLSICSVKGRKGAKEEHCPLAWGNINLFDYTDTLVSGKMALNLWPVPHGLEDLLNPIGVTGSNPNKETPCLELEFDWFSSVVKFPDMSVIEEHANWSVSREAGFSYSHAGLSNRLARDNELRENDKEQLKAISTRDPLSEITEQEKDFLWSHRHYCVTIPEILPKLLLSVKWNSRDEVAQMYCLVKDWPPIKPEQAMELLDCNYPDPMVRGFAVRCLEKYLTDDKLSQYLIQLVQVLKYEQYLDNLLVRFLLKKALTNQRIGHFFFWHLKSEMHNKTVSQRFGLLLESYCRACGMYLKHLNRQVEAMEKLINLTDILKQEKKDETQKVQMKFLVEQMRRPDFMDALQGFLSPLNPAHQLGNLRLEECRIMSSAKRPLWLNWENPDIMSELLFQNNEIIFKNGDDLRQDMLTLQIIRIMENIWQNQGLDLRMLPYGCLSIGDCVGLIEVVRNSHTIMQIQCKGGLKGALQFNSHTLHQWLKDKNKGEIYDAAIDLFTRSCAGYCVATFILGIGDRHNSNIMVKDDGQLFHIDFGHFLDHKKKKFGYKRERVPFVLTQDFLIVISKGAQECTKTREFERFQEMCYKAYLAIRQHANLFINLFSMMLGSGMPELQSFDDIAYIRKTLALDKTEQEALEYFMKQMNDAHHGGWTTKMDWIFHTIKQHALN
T1 sequence (P27986 whole entry partner): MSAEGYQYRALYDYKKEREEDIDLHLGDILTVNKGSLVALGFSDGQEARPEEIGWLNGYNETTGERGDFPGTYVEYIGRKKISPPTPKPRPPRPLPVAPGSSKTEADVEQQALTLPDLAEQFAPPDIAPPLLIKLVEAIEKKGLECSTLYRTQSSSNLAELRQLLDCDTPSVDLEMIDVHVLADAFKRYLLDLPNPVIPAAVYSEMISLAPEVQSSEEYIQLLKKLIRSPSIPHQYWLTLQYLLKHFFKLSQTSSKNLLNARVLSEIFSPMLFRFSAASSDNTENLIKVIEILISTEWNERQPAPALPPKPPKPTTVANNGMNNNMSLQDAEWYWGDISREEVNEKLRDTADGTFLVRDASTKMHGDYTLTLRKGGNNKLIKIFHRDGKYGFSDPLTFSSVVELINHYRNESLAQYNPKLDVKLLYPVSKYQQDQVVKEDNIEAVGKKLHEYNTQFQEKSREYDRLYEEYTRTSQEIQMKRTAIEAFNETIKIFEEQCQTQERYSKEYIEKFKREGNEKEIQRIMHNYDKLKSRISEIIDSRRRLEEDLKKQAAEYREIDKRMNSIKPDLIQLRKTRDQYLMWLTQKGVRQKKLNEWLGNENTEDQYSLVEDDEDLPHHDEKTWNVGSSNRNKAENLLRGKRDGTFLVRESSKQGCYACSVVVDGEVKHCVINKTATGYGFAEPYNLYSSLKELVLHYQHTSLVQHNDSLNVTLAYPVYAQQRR

HDAC1 = HDAC1 (Homo sapiens, UniProt Q13547); test: HDAC enzyme assay, recombinant HDAC1
Chain of HDAC1 (Q13547 whole entry): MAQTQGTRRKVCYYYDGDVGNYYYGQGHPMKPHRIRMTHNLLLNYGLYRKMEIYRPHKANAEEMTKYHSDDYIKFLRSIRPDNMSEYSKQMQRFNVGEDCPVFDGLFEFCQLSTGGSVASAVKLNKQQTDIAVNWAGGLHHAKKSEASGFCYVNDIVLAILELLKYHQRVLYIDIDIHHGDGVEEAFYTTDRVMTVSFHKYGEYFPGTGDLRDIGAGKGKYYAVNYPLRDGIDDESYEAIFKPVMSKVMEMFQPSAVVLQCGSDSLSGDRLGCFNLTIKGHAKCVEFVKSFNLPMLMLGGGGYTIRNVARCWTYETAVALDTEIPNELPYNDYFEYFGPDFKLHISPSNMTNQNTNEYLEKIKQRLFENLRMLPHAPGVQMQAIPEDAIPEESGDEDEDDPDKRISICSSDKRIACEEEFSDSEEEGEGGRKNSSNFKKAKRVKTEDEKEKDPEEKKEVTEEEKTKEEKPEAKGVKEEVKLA

HDAC6 = target: T2, HDAC6 (Homo sapiens, UniProt Q9UBN7); test: HDAC enzyme assay, recombinant HDAC6
T2 sequence (Q9UBN7 1-1215): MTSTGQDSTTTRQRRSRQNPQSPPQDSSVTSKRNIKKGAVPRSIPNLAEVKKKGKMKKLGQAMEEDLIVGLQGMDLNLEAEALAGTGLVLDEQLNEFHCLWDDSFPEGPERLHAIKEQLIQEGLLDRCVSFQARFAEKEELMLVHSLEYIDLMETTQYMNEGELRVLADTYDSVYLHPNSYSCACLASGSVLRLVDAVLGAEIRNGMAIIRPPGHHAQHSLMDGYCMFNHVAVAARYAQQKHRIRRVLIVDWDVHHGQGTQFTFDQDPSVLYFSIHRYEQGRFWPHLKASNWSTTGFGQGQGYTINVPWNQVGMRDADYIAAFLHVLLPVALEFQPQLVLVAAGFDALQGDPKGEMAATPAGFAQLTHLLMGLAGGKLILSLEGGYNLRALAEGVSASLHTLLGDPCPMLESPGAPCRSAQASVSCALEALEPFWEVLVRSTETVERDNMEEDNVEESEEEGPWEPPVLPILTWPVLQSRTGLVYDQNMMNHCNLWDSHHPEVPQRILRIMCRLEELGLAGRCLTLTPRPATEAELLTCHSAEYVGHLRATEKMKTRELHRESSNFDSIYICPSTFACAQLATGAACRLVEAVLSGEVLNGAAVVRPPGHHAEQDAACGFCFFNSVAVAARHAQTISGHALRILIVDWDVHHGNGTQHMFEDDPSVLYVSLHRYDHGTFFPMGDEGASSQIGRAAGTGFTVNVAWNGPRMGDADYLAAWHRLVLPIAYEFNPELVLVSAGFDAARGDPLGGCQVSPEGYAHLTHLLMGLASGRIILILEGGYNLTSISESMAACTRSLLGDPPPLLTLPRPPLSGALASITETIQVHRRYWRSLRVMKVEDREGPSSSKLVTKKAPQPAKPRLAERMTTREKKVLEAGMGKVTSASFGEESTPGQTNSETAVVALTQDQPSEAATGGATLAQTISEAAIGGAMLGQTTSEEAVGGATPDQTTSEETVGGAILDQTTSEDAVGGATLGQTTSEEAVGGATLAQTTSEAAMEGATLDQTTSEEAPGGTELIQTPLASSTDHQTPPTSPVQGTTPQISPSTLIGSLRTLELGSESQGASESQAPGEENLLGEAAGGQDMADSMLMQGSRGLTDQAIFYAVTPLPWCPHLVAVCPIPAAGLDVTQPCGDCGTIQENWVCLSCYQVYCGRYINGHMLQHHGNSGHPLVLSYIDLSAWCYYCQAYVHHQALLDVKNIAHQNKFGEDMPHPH

[4] = Microsomal stability, mouse liver microsomes; conditions: mouse, microsomes, 0.5 h, 5 μM, pH 7.4
Protocol: as §1, §2

K-562 = test: Anti-proliferative assay (cellular IC50), K-562; conditions: Homo sapiens, K562, 72 h, read-out: In Vitro Cellular IC50 K-562

SMILES	IC50 (HCT 116)	IC50 (MV-4-11)	IC50 [1]	IC50 (MCF7)	IC50 (HepG2)	IC50 (MOLT-4)	IC50 (PC-3)	Microsomal Stability HLM, % of remaining parent compound [2]	Microsomal Stability RLM, % of remaining parent compound [3]	IC50 (COLO 205)	IC50 (PI3Kα)	IC50 (HDAC1)	IC50 (HDAC6)	Microsomal Stability MLM, % of remaining parent compound [4]	IC50 (K-562)
CC(C)n1ccc2c(-c3cccc(OCCCC(=O)NO)c3)nc(N3CCCC3)nc21 [compound 75, N-hydroxy-4-(3-(7-isopropyl-2-(pyrrolidin-1-yl)-7H-pyrrolo[2,3-d]pyrimidin-4-yl)phenoxy)butanamide]	0.5 to 2 µM	< 0.5 µM	0.01 to 0.1 µM	0.5 to 2 µM	2 to 10 µM		2 to 10 µM								
CC(C)n1cnc2c(N3CCOCC3)nc(-c3ccc(OCCCC(=O)NO)cc3)nc21 [compound 82, N-hydroxy-4-(4-(9-isopropyl-6-morpholino-9H-purin-2-yl)phenoxy)butanamide]		0.5 to 2 µM	0.01 to 0.1 µM	2 to 10 µM			> 10 µM	83%	64%	> 10 µM					
CCn1c(CN(C)CCCCCC(=O)NO)nc2c(N3CCOCC3)nc(-c3cccc(CO)c3)nc21 [compound 97]		0.5 to 2 µM	0.1 to 1 µM	2 to 10 µM	2 to 10 µM		2 to 10 µM				0.01 to 0.1 µM	0.01 to 0.1 µM	0.1 to 1 µM		
CCn1cnc2c(-c3cccc(OCCCC(=O)NO)c3)nc(N3CCOCC3)nc21 [compound 45, 4-(3-(9-ethyl-2-morpholino-9H-purin-6-yl)phenoxy)-N-hydroxybutanamide]		< 0.5 µM	0.01 to 0.1 µM	0.5 to 2 µM		< 0.5 µM	0.5 to 2 µM	105%	45%	0.5 to 2 µM		0.1 to 1 µM		78%	0.5 to 2 µM

Second part, the molecule after the results:

IC50 (HCT 116)	IC50 (MV-4-11)	IC50 [1]	IC50 (MCF7)	IC50 (HepG2)	IC50 (MOLT-4)	IC50 (PC-3)	Microsomal Stability HLM, % of remaining parent compound [2]	Microsomal Stability RLM, % of remaining parent compound [3]	IC50 (COLO 205)	IC50 (PI3Kα)	IC50 (HDAC1)	IC50 (HDAC6)	Microsomal Stability MLM, % of remaining parent compound [4]	IC50 (K-562)	SMILES
0.5 to 2 µM	< 0.5 µM	0.01 to 0.1 µM	< 0.5 µM	0.5 to 2 µM	< 0.5 µM										CCC(CC)n1cnc2c(-c3cccc(OCCCC(=O)NO)c3)nc(N3CCOCC3)nc21 [compound 101, N-hydroxy-4-(3-(2-morpholino-9-(pentan-3-yl)-9H-purin-6-yl)phenoxy)butanamide]
	< 0.5 µM	0.01 to 0.1 µM	0.5 to 2 µM	0.5 to 2 µM		2 to 10 µM			2 to 10 µM						CC(C)n1cnc2c(-c3ccc(F)c(OCCCC(=O)NO)c3)nc(N3CCOCC3)nc21 [compound 62, 4-(2-fluoro-5-(9-isopropyl-2-morpholino-9H-purin-6-yl)phenoxy)-N-hydroxybutanamide]
	< 0.5 µM	0.01 to 0.1 µM	0.5 to 2 µM		< 0.5 µM	0.5 to 2 µM	97%	54%	0.5 to 2 µM		0.1 to 1 µM		96%	< 0.5 µM	CCCn1cnc2c(-c3cccc(OCCCC(=O)NO)c3)nc(N3CCOCC3)nc21 [compound 43, N-hydroxy-4-(3-(2-morpholino-9-propyl-9H-purin-6-yl)phenoxy)butanamide]

— US9957270B2, “Fused pyrimidine-based hydroxamate derivatives” (Agency for Science, Technology and Research, priority 2014, dated 2018)
